These results are taken from patent publication US11000033B2, “Ketone or oxime compound, and herbicide” (NISSAN CHEMICAL CORPORATION, priority 2014, dated 2021).

Molecules are shown by their SMILES.

Holding throughout (type): in vivo
For series [1], the system named is soybean. Description: Test Example 5: effect on crop by foliage application, plastic box (symbol d). The conditions noted are these: 320 g/ha, 3 weeks after application. The method, boiled down: (§1)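 Greenhouse culture at 25° C. to 30° C. followed spot-like sowing into sterilized diluvial soil, with seed covered by roughly 1.5 cm of soil.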
The test system of series [2] is Chenopodium album. Put plainly: Test Example 4: herbicidal effect by soil treatment (symbol O). The conditions noted are these: for O: Chenopodium album, herbicidal effect grade: 320 g/ha. The text has this: Herbicidal Effect Test by Soil Treatment
Sterilized diluvial soil was placed in a plastic box having a length of 21 cm, a width of 13 cm, and a depth of 7 cm. Each of the seeds of Digitaria ciliaris, Setaria viridis, Echinochloa crus-galli var. crus-galli, Avena fatua, Alopecurus myosuroides, Lolium multiflorum Lam., Apera spica-venti, Abutilon theophrasti, Amaranthus retroflexus, Chenopodium album, Stellaria media, Galium spurium, Veronica persica, corn, soybean, rice, wheat, beet, and rapeseed was sowed in a spot-like manner and was covered with the soil of a thickness of about 1.5 cm. Subsequently, the emulsion agent of the compound present invention prepared in accordance with Formulation Example 2 was diluted with water so as to be a predetermined herbicide amount and the diluted emulsion agent was uniformly applied to the surface of the soil with a small-size spray. The plastic box was placed in a greenhouse of 25° C. to 30° C. to grow plant. 3 weeks later from the herbicide application, the effect to each plant was investigated in accordance with the criteria of Test Example 1.

Series [3] deals with soybean. Put plainly: Test Example 4: effect on crop by soil treatment (symbol d). As to conditions: for d: soybean, effect grade on crop: 320 g/ha. Summed up: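 Greenhouse culture at 25° C. to 30° C. followed sowing of seed in spots on sterilized diluvial soil with a soil cover close to 1.5 cm thick.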
In series [4] the test system is Echinochloa oryzacola Vasing. Put plainly: Test Example 1: herbicidal activity, application before weed generation in submerged conditions (symbol A). As to conditions: application herbicide amount 320 g/ha. The method, boiled down: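 0–5 visual score, 3 wk post-application. Submerged pots, alluvial soil, water 4 cm; seeds sown mixed, rice at 2.5 leaves transplanted. Emulsion diluted to predetermined dose, applied to water surface at sowing. 25–30 °C greenhouse.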

The test system of series [5] is Abutilon theophrasti. Description: Test Example 5: herbicidal effect by foliage application, plastic box (symbol M). As to conditions: 320 g/ha, 3 weeks after application. Summed up:
(§2)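 Effect is rated 3 weeks after a foliar spray of water-diluted emulsion concentrate at a predetermined herbicide amount. Plants had grown 14 days in a 25° C. to 30° C. greenhouse from seed in sterilized diluvial soil.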

Series [6] deals with transplanted rice plant. Put plainly: Test Example 1: effect on crop, application before weed generation in submerged conditions (symbol a). The conditions noted are these: application herbicide amount 320 g/ha. The method, boiled down:
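Alluvial soil pots flooded to 4 cm water, sown with Echinochloa oryzacola, Scirpus juncoides and Monochoria vaginalis, then transplanted with 2.5 leaf stage rice seedlings; pre-emergence application. Greenhouse 25° C. to 30° C.; scored 0–5 by herbicidal ratio 3 weeks after application.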

The test system of series [7] is Avena fatua. Put plainly: Test Example 5: herbicidal effect by foliage application, plastic box (symbol I). As to conditions: 320 g/ha, 3 weeks after application. Summed up: as §2
Series [8] relates to Echinochloa crus-galli var. crus-galli. Put plainly: Test Example 4: herbicidal effect by soil treatment (symbol H). As to conditions: for H: Echinochloa crus-galli var. crus-galli, herbicidal effect grade: 320 g/ha. The method, boiled down: (§3)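 Seeds were sown in sterilized diluvial soil, covered with about 1.5 cm of soil, and the soil surface was sprayed with a water-diluted emulsion of the compound at a predetermined rate. Plants grew in a greenhouse at 25° C. to 30° C.; effects were scored visually 3 weeks after application.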

Series [9] has as its system Digitaria ciliaris. Put plainly: Test Example 5: herbicidal effect by foliage application, plastic box (symbol F). As to conditions: 320 g/ha, 3 weeks after application. Summed up:
as §2

Series [10] deals with directly sowed rice plant. Description: Test Example 3: effect on crop by foliage application, Wagner pot (symbol b). As to conditions: application herbicide amount 320 g/ha. Summed up: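 Plants are raised from seed in flooded paddy conditions: water stands 0.1–0.5 cm over alluvial soil, and the pot is kept in a greenhouse at 25–30 °C. Species sown are barnyardgrass (E. crus-galli var. crus-galli), Leptochloa chinensis, Cyperus difformis and rice.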

For series [11], the system named is corn. Put plainly: Test Example 5: effect on crop by foliage application, plastic box (symbol c). The conditions noted are these: 320 g/ha, 3 weeks after application. The method, boiled down:
as §1

In series [12] the test system is Apera spica-venti. Put plainly: Test Example 4: herbicidal effect by soil treatment (symbol L). As to conditions: for L: Apera spica-venti, herbicidal effect grade: 320 g/ha. The method, boiled down:
as §3

The test system of series [13] is Abutilon theophrasti. Put plainly: Test Example 4: herbicidal effect by soil treatment (symbol M). As to conditions: for M: Abutilon theophrasti, herbicidal effect grade: 320 g/ha. The method, boiled down: as §3
Series [14] has as its system Veronica persica. Put plainly: Test Example 5: herbicidal effect by foliage application, plastic box (symbol R). As to conditions: 320 g/ha, 3 weeks after application. The method, boiled down: as §2
The mark [15] stands for this setting: application herbicide amount 320 g/ha.

In the case of `Cc1cc(Br)cc(C)c1C1=C(O)CC(CC(=O)C2CC2)C1=O` (racemic) [10-004], in series [1], the “d: soybean, effect on crop grade” value is recorded as 0 (Herbicidal ratio of 5% or lower (almost no effect)). Further, in [2] (setting [15]), the “Herbicidal effect grade, O: Chenopodium album” value is recorded as 0 (Herbicidal ratio of 5% or lower (almost no effect)). Moreover, the “Effect on crop grade, d: soybean” value in series [3] (setting [15]) is 0 (Herbicidal ratio of 5% or lower (almost no effect)). Also, the “A (Echinochloa oryzacola Vasing.) herbicidal effect grade” value in [4] is given as 5 (Herbicidal ratio of 90% or more (almost completely withered)). For the same molecule, the “M: Abutilon theophrasti, herbicidal effect grade” value in series [5] was 3 (Herbicidal ratio of 40% or higher and lower than 70%). The “a (transplanted rice plant) effect on crop grade” value in [6] is recorded as 5 (Herbicidal ratio of 90% or more (almost completely withered)). Also, the “I: Avena fatua, herbicidal effect grade” value in series [7] is 5 (Herbicidal ratio of 90% or more (almost completely withered)). In addition, the “Herbicidal effect grade, H: Echinochloa crus-galli var. crus-galli” value in series [8] (setting [15]) is recorded as 5 (Herbicidal ratio of 90% or more (almost completely withered)). Moreover, the “F: Digitaria ciliaris, herbicidal effect grade” value in series [9] is listed as 5 (Herbicidal ratio of 90% or more (almost completely withered)). In series [10] (Table 24), the “b (directly sowed rice plant) effect on crop grade” value is reported as 5 (Herbicidal ratio of 90% or more (almost completely withered)). Besides, the “c: corn, effect on crop grade” value in series [11] is reported as 5 (Herbicidal ratio of 90% or more (almost completely withered)). Besides, the “Herbicidal effect grade, L: Apera spica-venti” value in series [12] (setting [15]) is 5 (Herbicidal ratio of 90% or more (almost completely withered)). Further, in series [13] (setting [15]), the “Herbicidal effect grade, M: Abutilon theophrasti” value is reported as 0 (Herbicidal ratio of 5% or lower (almost no effect)). Further, the “R: Veronica persica, herbicidal effect grade” value in series [14] is 3 (Herbicidal ratio of 40% or higher and lower than 70%).

On to `CON=C(C)CC1CC(OC(=O)C#C[Si](C)(C)C)=C(c2c(C)cc(C)cc2C)C1=O` (centres unmarked) [1-096], for which the “d: soybean, effect on crop (criteria 0-5)” value (“d: soybean … (criteria 0-5)” for short) in [1] was 3 (Herbicidal ratio of 40% or higher and lower than 70%). Also, the “O: Chenopodium album, herbicidal effect grade” value in series [2] is on record as 0 (Herbicidal ratio of 5% or lower (almost no effect)). Further, in [3], the “d: soybean, effect grade on crop” value was 1 (Herbicidal ratio of 5% or higher and lower than 20%). Also, in series [4], the “Herbicidal effect grade, A: Echinochloa oryzacola Vasing.” value is recorded as 5 (Herbicidal ratio of 90% or more (almost completely withered)). In addition, in [5], the “M: Abutilon theophrasti, herbicidal effect (criteria 0-5)” value was 4 (Herbicidal ratio of 70% or higher and lower than 90%). The “Effect grade on crop, a: transplanted rice plant” value in [6] was 5 (Herbicidal ratio of 90% or more (almost completely withered)). The “I: Avena fatua, herbicidal effect (criteria 0-5)” value (“I: Avena fatua … (criteria 0-5)” below) in series [7] was 5 (Herbicidal ratio of 90% or more (almost completely withered)). The “H: Echinochloa crus-galli var. crus-galli, herbicidal effect grade” value in [8] is 4 (Herbicidal ratio of 70% or higher and lower than 90%). The “F: Digitaria ciliaris, herbicidal effect (criteria 0-5)” value (“F: Digitaria ciliaris … (criteria 0-5)” for short) in [9] is 5 (Herbicidal ratio of 90% or more (almost completely withered)). Moreover, the “effect on crop b (directly sowed rice plant), grade 0-5” value (“effect on crop b” for short) in [10] is 5 (Herbicidal ratio of 90% or more (almost completely withered)). Also, in series [11], the “c: corn, effect on crop (criteria 0-5)” value is listed as 5 (Herbicidal ratio of 90% or more (almost completely withered)). In addition, the “L: Apera spica-venti, herbicidal effect grade” value in [12] was 5 (Herbicidal ratio of 90% or more (almost completely withered)). Also, the “M: Abutilon theophrasti, herbicidal effect grade” value in series [13] was 4 (Herbicidal ratio of 70% or higher and lower than 90%). Further, the “R: Veronica persica, herbicidal effect (criteria 0-5)” value (shortened to “R: Veronica persica … (criteria 0-5)”) in series [14] was 3 (Herbicidal ratio of 40% or higher and lower than 70%).

For the molecule `CON=C(C)CC1CC(OC(=O)c2nsc(Cl)c2Cl)=C(c2c(C)cc(C)cc2C)C1=O` (centres unmarked) [1-099], the “d: soybean … (criteria 0-5)” value in series [1] is 4 (Herbicidal ratio of 70% or higher and lower than 90%). The “O: Chenopodium album, herbicidal effect grade” value in [2] is given as 0 (Herbicidal ratio of 5% or lower (almost no effect)). In [3], the “d: soybean, effect grade on crop” value was 3 (Herbicidal ratio of 40% or higher and lower than 70%). Besides, the “Herbicidal effect grade, A: Echinochloa oryzacola Vasing.” value in series [4] is reported as 5 (Herbicidal ratio of 90% or more (almost completely withered)). Further, the “M: Abutilon theophrasti, herbicidal effect (criteria 0-5)” value in series [5] was 4 (Herbicidal ratio of 70% or higher and lower than 90%). In [6], the “Effect grade on crop, a: transplanted rice plant” value is recorded as 5 (Herbicidal ratio of 90% or more (almost completely withered)). Besides, in series [7], the “I: Avena fatua … (criteria 0-5)” value was 5 (Herbicidal ratio of 90% or more (almost completely withered)). Further, the “H: Echinochloa crus-galli var. crus-galli, herbicidal effect grade” value in series [8] is given as 5 (Herbicidal ratio of 90% or more (almost completely withered)). In addition, in series [9], the “F: Digitaria ciliaris … (criteria 0-5)” value is 5 (Herbicidal ratio of 90% or more (almost completely withered)). Besides, the “effect on crop b” value in series [10] is reported as 5 (Herbicidal ratio of 90% or more (almost completely withered)). Moreover, the “c: corn, effect on crop (criteria 0-5)” value in series [11] was 5 (Herbicidal ratio of 90% or more (almost completely withered)). The “L: Apera spica-venti, herbicidal effect grade” value in series [12] is listed as 5 (Herbicidal ratio of 90% or more (almost completely withered)). Also, the “M: Abutilon theophrasti, herbicidal effect grade” value in [13] was 5 (Herbicidal ratio of 90% or more (almost completely withered)). In addition, the “R: Veronica persica … (criteria 0-5)” value in series [14] is 3 (Herbicidal ratio of 40% or higher and lower than 70%).

For the molecule `Cc1cc(C)c(C2=C(O)CC(CC(=NOCC(F)(F)F)C3CC3)C2=O)c(C)c1` (centres unmarked) [1-131], in series [1], the “d: soybean … (criteria 0-5)” value is 0 (Herbicidal ratio of 5% or lower (almost no effect)). Further, the “O: Chenopodium album, herbicidal effect grade” value in series [2] is on record as 0 (Herbicidal ratio of 5% or lower (almost no effect)). Also, the “d: soybean, effect grade on crop” value in series [3] is given as 0 (Herbicidal ratio of 5% or lower (almost no effect)). Besides, the “Herbicidal effect grade, A: Echinochloa oryzacola Vasing.” value in series [4] is given as 5 (Herbicidal ratio of 90% or more (almost completely withered)). Further, the “M: Abutilon theophrasti, herbicidal effect (criteria 0-5)” value in series [5] was 0 (Herbicidal ratio of 5% or lower (almost no effect)). Moreover, the “Effect grade on crop, a: transplanted rice plant” value in series [6] is 4 (Herbicidal ratio of 70% or higher and lower than 90%). Moreover, in series [7], the “I: Avena fatua … (criteria 0-5)” value is 4 (Herbicidal ratio of 70% or higher and lower than 90%). In addition, the “H: Echinochloa crus-galli var. crus-galli, herbicidal effect grade” value in series [8] was 5 (Herbicidal ratio of 90% or more (almost completely withered)). Further, the “F: Digitaria ciliaris … (criteria 0-5)” value in series [9] was 0 (Herbicidal ratio of 5% or lower (almost no effect)). In addition, the “effect on crop b” value in series [10] was 5 (Herbicidal ratio of 90% or more (almost completely withered)). Further, the “c: corn, effect on crop (criteria 0-5)” value in series [11] was 3 (Herbicidal ratio of 40% or higher and lower than 70%). Besides, the “L: Apera spica-venti, herbicidal effect grade” value in series [12] is given as 5 (Herbicidal ratio of 90% or more (almost completely withered)). In addition, the “M: Abutilon theophrasti, herbicidal effect grade” value in series [13] is 0 (Herbicidal ratio of 5% or lower (almost no effect)). For the same molecule, the “R: Veronica persica … (criteria 0-5)” value in series [14] is 4 (Herbicidal ratio of 70% or higher and lower than 90%).
